Literature values, collected in US20230398240A1, “THERAPEUTIC RADIOLABELLED CONJUGATES AND THEIR USE IN THERAPY” (priority 2020, published 2023).

Tests used:
[1] = test system: quiescent endothelial cells; conditions: in vitro

In the case of `N[C@@H](CCC(=O)N[C@@H](CSCC(=O)Nc1ccc([As](O)O)cc1)C(=O)NCC(=O)O)C(=O)O` [GSAO, 4-(N—(S-glutathionylacetyl)amino)phenylarsenous acid], the “toxicity to quiescent endothelial cells” value [1] is listed as “nontoxic to quiescent endothelial cells”, the “toxicity to proliferating cells” value (proliferating cells) is listed as “toxic to proliferating cells” and the “effect on angiogenesis in vivo” value (angiogenesis) is listed as “inhibits angiogenesis in vivo”.
